One test has as its system IRE1α. The following applies: Fig. 1b; read-out: IC50 of reported IRE1α inhibitor; cited from earlier work.
In test [1] the target is T1, dephosphorylated IRE1α (547–977) (Homo sapiens, UniProt O75460).
T1 construct: Human IRE1α kinase and RNase domain (residues 547–977) was subcloned into pLIB plasmid; His tag (with TEV cleavage site) (N, cleaved yes); made in house; host or cells: Sf9 insect cells, baculovirus (Bac-to-Bac)
Nature of the test: FRET-based IRE1α RNase activity assay, dephosphorylated IRE1α. It is filed as biochemical. In short, it runs like this: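 Inhibition came from the linear-phase cleavage rate of 100 nM XBP1-sequence FAM/BHQ1 RNA, monitored at 485/535 nm over one hour and fitted to IC50. Enzyme: 40 nM unphosphorylated IRE1α kinase-RNase domain (547–977), exposed to compound for 30 min at room temperature before substrate, in HEPES pH 7.5 buffer.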

Test [2] has as its target T2, phosphorylated IRE1α (p-IRE1α) (Homo sapiens, UniProt O75460).
T2 construct: Human IRE1α kinase and RNase domain (residues 547–977) was subcloned into pLIB plasmid; His tag (with TEV cleavage site) (N, cleaved yes); made in house; host or cells: Sf9 insect cells, baculovirus (Bac-to-Bac)
The test can be described thus: FRET-based IRE1α RNase activity assay, phosphorylated IRE1α. Format: biochemical. In short, it runs like this:
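Cleavage of a dual-labeled XBP1 RNA (200 nM) was followed kinetically over 1 h at room temperature at 485/535 nm, with initial slopes giving percent inhibition and IC50. Enzyme was 4 nM phosphorylated human IRE1α 547–977 from insect cells, incubated with compound for 30 min before substrate; buffer 20 mM HEPES pH 7.5, KOAc, MgOAc2, DTT, Triton X-100.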

In test [3] the target is T3, p-IRE1α dimerization and oligomerization (Homo sapiens, UniProt O75460).
T3 construct: Human IRE1α kinase and RNase domain (residues 547–977) was subcloned into pLIB plasmid; His tag (with TEV cleavage site) (N, cleaved yes); made in house; host or cells: Sf9 insect cells, baculovirus (Bac-to-Bac)
The test can be described thus: DSS cross-linking assay with mass photometry. To be noted: 100 μM compound, DSS crosslinking. The procedure: Phosphorylated IRE1α (p-IRE1α) and compounds were incubated 30 min at room temperature, with a final concentration of 2 μM p-IRE1α and 100 μM of the indicated compound, in a buffer containing 20 mM HEPES, pH 7.5, 50 mM KOAc, 1 mM MgOAc2, 1 mM DTT, 0.05% v/v TritonX-100, in a total reaction volume of 20 μL. After incubation, DSS (disuccinimidyl suberate, Thermo Fisher, A39267) was added to the reaction at a final concentration of 250 μM to induce crosslinking at room temperature for 1 h. Tris (pH 7.5) was added to a final concentration of 50 mM to stop the reaction. Samples were further measured with a mass photometry instrument (Refeyn Ltd). The PBS buffer was used for the mass photometry measurement. The instrument was calibrated with BSA and TG protein mixture in PBS. Samples were diluted to a protein concentration of 100 nM with buffer before measurement. Then, 18 μL PBS buffer was added to the center of the gasket on the coverslips to check and find the focus. Afterward, 2 μL of the diluted sample was added, mixed, and measured. Data were analyzed using Discover MP software, for each sample, results from 3 individual measurements were merged.

The test system of test [4] is XBP1 mRNA splicing in A549 cells. Nature of the test: RT-qPCR of ER stress-induced XBP1 mRNA splicing, A549. To be noted: Fig. 7c, 0.5μg/mL Tm, individual replicates. It is filed as cell-based, human. The procedure: (§1) A549 cells, HCT 116 cells, and HT-29 cells were collected and seeded in 6-well plates at a density of 5 × 10^5 cells per well and cultured overnight to attach, then treated with compound or DMSO for 2 h, then 0.5 μg/mL final concentration of tunicamycin (Tm, MP Biomedi, 0215002805) were added to induce the ER stress for 2 h. After treatment, total RNA was purified using an RNeasy mini kit (Qiagen, 74106). 500 ng of total RNA was used for reverse transcription using the High-Capacity cDNA Reverse Transcription Kits (Thermo Fisher, 4368814). cDNA was diluted 1: 5 using RNase-free water, and 1 μL CDNA was used for each qPCR reaction. The qPCR was performed using PowerUp™ SYBR™ Green Master Mix (Thermo Fisher, A25742) with 10 µL reaction volume using Bio-Rad CFX96 Real-Time PCR Detection System following the standard cycling mode (primer Tm ≥ 60 °C) on the manufacturer’s protocol. Data was analyzed using the 2^- ΔΔCt method. The primers used are listed in Supplementary Table S3. The inhibition % was calculated by using the equation: inhibition% = 100× (normalized Tm control - normalized of the sample)/(normalized Tm control - normalized DMSO control). Tm control: Cells treated with tunicamycin; DMSO control: Cells treated with DMSO only.
(Real-time PCR tracks product formation cycle by cycle.)

Test [5] relates to XBP1 mRNA splicing in HCT 116 cells. The test can be described thus: RT-qPCR of ER stress-induced XBP1 mRNA splicing, HCT 116. Format: cell-based, human. The following applies: HCT116. The method, then:
as §1

The subject of test [6] is XBP1 mRNA splicing in HT-29 cells. Nature of the test: RT-qPCR of ER stress-induced XBP1 mRNA splicing, HT-29. It is filed as cell-based, human. To be noted: HT-29. The procedure:
as §1

Test [7] deals with IRE1α transcription level in A549 cells. The test can be described thus: RT-qPCR of IRE1α transcription level, A549. It is filed as cell-based, human. To be noted: A549. The method, then: as §1
For test [8], the system named is IRE1α transcription level in HCT 116 cells. The test can be described thus: RT-qPCR of IRE1α transcription level, HCT 116. Format: cell-based, human. The following applies: HCT116. The method, then:
as §1

The subject of test [9] is IRE1α transcription level in HT-29 cells. Nature of the test: RT-qPCR of IRE1α transcription level, HT-29. Format: cell-based, human. To be noted: HT-29. The procedure:
as §1

Values joined by “and” are separate entries in the source; they are usually repeats but may differ in a detail not shown here. Equal values may be shown once.

T3 sequence (O75460 547-977): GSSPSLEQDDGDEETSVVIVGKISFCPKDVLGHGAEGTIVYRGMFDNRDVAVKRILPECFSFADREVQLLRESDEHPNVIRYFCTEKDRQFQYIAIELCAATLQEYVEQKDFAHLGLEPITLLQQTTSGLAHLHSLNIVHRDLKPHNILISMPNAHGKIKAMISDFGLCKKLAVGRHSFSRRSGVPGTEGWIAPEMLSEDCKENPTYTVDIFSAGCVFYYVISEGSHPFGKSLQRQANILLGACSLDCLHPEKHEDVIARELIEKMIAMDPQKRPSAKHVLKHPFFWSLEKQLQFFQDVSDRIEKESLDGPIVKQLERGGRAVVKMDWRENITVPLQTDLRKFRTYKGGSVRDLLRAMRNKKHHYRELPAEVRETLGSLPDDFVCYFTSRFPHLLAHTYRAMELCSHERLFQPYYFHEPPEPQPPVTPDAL
T1 sequence (O75460 547-977): as above
T2 sequence (O75460 547-977): as above

One may read the IC50 as the concentration that gives 50% inhibition. `Cc1ccc(C)c(NC(=O)NC(C)CCc2ccc(O)cc2)c1` (stereo not drawn) [Compound Z4P]: the IC50 in the test on IRE1α was 3140 nM.

In the case of `CN[C@@H]1C[C@H]2O[C@@](C)([C@@H]1OC)n1c3ccccc3c3c4c(c5c6ccccc6n2c5c31)C(=O)NC4` [STS, staurosporine, reference compound], in [1], the “effect on IRE1α RNase activity in the FRET assay” value is given as “activated the RNase activity”. Besides, the “effect on p-IRE1α RNase activity in the FRET assay” value in test [2] is on record as “did not affect the RNase activity”. In [3], the “effect on p-IRE1α dimerization/oligomerization” value is “did not affect the dimerization and oligomerization”.

Take `CC1(c2nc(-c3ccc(NC(=O)Nc4cccc(F)c4)c4ccccc34)c3c(N)nccn23)CC1` [KIRA7]: in the test on IRE1α, the IC50 is 110 nM.

Regarding `Cc1cc(=O)oc2c(C=O)c(O)ccc12` [Compound 4μ8c], the IC50 in the test on IRE1α was 76 nM.

As for `COc1cc2c(C)c(CC(=O)N3CCOCC3)c(=O)oc2c(C=O)c1O` [MCK8866], in the test on IRE1α, the IC50 is 390 nM.

For the molecule `CCOC(=O)CCc1c(C)n(C(=O)c2ccccc2)c2ccc(Br)cc12` [IA105], the “Relative XBP1s/Actin” value in test [4] (0.009 μM) was 2.671 and 2.32 and 2.971 and 2.381; in test [4] (0.027 μM), 2.362 and 2.303 and 2.482 and 2.4563; in test [4] (0.082 μM) it was 2.039 and 2.057 and 2.192 and 2.023; in [4] (0.247 μM), 1.808 and 1.675 and 1.769 and 1.486; in test [4] (0.741 μM) it was 1.216 and 1.256 and 1.279 and 1.145; in [4] (2.22 μM) it was 1.073 and 0.792 and 1.044 and 0.8663. Moreover, the “Relative XBP1s/Actin” value is 1.0995 and 1.154 and 1.208 and 1.113 in [4] (6.67 μM); 1.054 and 1.019 and 1.028 and 0.9077 in test [4] (20 μM); 5.428 and 5.195 and 5.7981 and 4.548 in test [5] (0.009 μM); 5.989 and 4.76 and 5.372 and 4.813 in test [5] (0.027 μM); 5.025 and 4.655 and 4.826 and 4.338 in test [5] (0.082 μM); 4.351 and 4.263 and 4.713 and 3.571 in test [5] (0.247 μM). Further, the “Relative XBP1s/Actin” value was 2.654 and 2.493 and 2.725 and 2.232 in test [5] (0.741 μM); 1.206 and 0.9713 and 1.3073 and 1.15 in test [5] (2.22 μM); 1.256 and 1.21 and 1.297 and 1.076 in [5] (6.67 μM); 1.065 and 0.9931 and 0.9536 and 0.8918 in test [5] (20 μM); 11.684 and 10.815 and 12.821 and 10.854 in test [6] (0.003 μM); 11.469 and 10.431 and 11.317 and 10.144 in test [6] (0.009 μM). Also, the “Relative XBP1s/Actin” value in test [6] (0.027 μM) is 12.267 and 11.074 and 12.013 and 10.900; in test [6] (0.082 μM), 8.652 and 8.438 and 8.782 and 8.518; in [6] (0.247 μM), 4.629 and 4.592 and 4.962 and 3.379; in test [6] (0.741 μM), 1.283 and 1.309 and 1.516 and 1.277; in [6] (2.22 μM), 1.103 and 1.024 and 1.015 and 0.976; in test [6] (6.67 μM), 0.958 and 0.872 and 0.904 and 0.841. Besides, in [6] (20 μM), the “Relative XBP1s/Actin” value was 1.096 and 1.163 and 1.053 and 0.889. Besides, the “Relative IRE1α/Actin” value in test [7] (0.009 μM) is 1.097 and 0.928 and 1.209 and 0.916; in [7] (0.027 μM) it was 1.090 and 0.987 and 1.064 and 0.939; in test [7] (0.082 μM) it was 1.050 and 1.155 and 1.127 and 1.034; in test [7] (0.247 μM), 1.053 and 1.161 and 1.037 and 0.961; in [7] (0.741 μM), 0.957 and 1.053 and 0.856 and 0.910; in test [7] (2.22 μM) it was 1.022 and 0.873 and 1.063 and 1.025. In addition, the “Relative IRE1α/Actin” value in test [7] (6.67 μM) is 0.890 and 0.939 and 0.992 and 0.722; in test [7] (20 μM) it was 1.131 and 1.096 and 0.934 and 0.949; in [8] (0.009 μM), 0.982 and 0.954 and 1.279 and 1.057; in test [8] (0.027 μM), 1.271 and 1.075 and 1.281 and 1.112; in test [8] (0.082 μM) it was 0.845 and 0.871 and 0.924 and 0.835; in test [8] (0.247 μM) it was 0.966 and 1.085 and 1.076 and 0.890. In addition, the “Relative IRE1α/Actin” value in test [8] (0.741 μM) is 0.990 and 1.042 and 1.123 and 0.879; in [8] (2.22 μM) it was 1.133 and 1.010 and 1.231 and 1.072; in [8] (6.67 μM) it was 1.059 and 0.972 and 1.144 and 0.971; in test [8] (20 μM) it was 1.034 and 0.915 and 0.978 and 0.882; in [9] (0.003 μM), 1.012 and 1.008 and 1.050 and 0.980; in [9] (0.009 μM) it was 0.917 and 0.954 and 1.053 and 0.909. Moreover, the “Relative IRE1α/Actin” value in test [9] (0.027 μM) was 1.104 and 0.811 and 1.025 and 1.043; in test [9] (0.082 μM), 0.794 and 0.825 and 1.037 and 0.844; in test [9] (0.247 μM) it was 0.885 and 0.861 and 0.831 and 0.823; in [9] (0.741 μM) it was 0.783 and 0.766 and 0.908 and 0.750; in test [9] (2.22 μM), 0.956 and 0.812 and 1.017 and 0.944; in test [9] (6.67 μM) it was 0.712 and 0.683 and 0.754 and 0.735. Also, in test [9] (20 μM), the “Relative IRE1α/Actin” value is 1.089 and 1.044 and 0.863 and 0.952.

`CN1CCC(CNc2cc(Cl)nn3c(-c4cc5nc(Nc6ccccc6)[nH]c5cc4F)cnc23)CC1` [Compound 31]: the IC50 with IRE1α was 80 nM.

`COCCOCCc1c(C)c2cc(OC)c(O)c(C=O)c2oc1=O` [MCK9989]: the concentration for half-maximal inhibition (IC50) with IRE1α was 290 nM.

Consider `O=S(=O)(N=Cc1c(O)ccc2ccccc12)c1cccs1` [STF-083010], for which the IC50 in the test with IRE1α is 25000 nM.

The values above are taken from article PMC12475274, “Harnessing indole scaffolds to identify small-molecule IRE1α inhibitors modulating XBP1 mRNA splicing” (Nature Communications, 2025).
